Measured values from patent US20250242064A1, “CXCR4-TARGETING COMPOUNDS, AND METHODS OF MAKING AND USING THE SAME” (PROVINCIAL HEALTH SERVICES AUTHORITY, priority 2022, published 2025).
Where a SMILES comes first, the peptide text is derived from it. Bridges are numbered along the chain shown (N, C = ends). Side-chain parts run from the residue outwards. [ ]: non-standard residue; d: D form. The star is where a group is joined. X4 = O=C(O)CN1CCN(CC(=O)O)CCN(CC(=O)N[C@@H](CS(=O)(=O)O)C(=O)NCCCC[C@H](NC(=O)CNC(=O)CCCc2ccc(Cl)cc2)C(=O)*)CCN(CC(=O)O)CC1; X6 = COc1ccc(CCCC(=O)NCCCC[C@H](NC(=O)[C@H](CS(=O)(=O)O)NC(=O)CN2CCN(CC(=O)O)CCN(CC(=O)O)CCN(CC(=O)O)CC2)C(=O)*)cc1; X7 = COc1ccc(CCCC(=O)NCCCC[C@H](NC(=O)CN2CCN(CC(=O)O)CCN(CC(=O)O)CCN(CC(=O)O)CC2)C(=O)*)cc1; 2Nal = N[C@@H](Cc1ccc2ccccc2c1)C(=O)O; Lys(iPr) = CC(C)NCCCC[C@H](N)C(=O)O; Cya = N[C@@H](CS(=O)(=O)O)C(=O)O

Assay: in vivo
Set-up: species or system mice
Details: male, NOD.Cg-Rag1tm1Mom Il2rgtm1Wjl/SzJ (NRG), mouse, iv, total radioactivity
Procedure: The Z138 Mantle cell lymphoma cell line was purchased from the American Type Culture Collection (ATCC©CRL-3001). The cell line was cultured in a 5% CO2 atmosphere at 37° C. in a humidified incubator with IMDM medium supplemented with 10% fetal bovine serum, 100 I.U./mL penicillin, and 100 μg/mL streptomycin.
[^68Ga]GaCl3 was eluted from an iThemba Labs generator with a total of 4 mL of 0.1 M HCl. The eluted [^68Ga]GaCl3 solution was added to 2 mL of concentrated HCl. This radioactive mixture was then added to a DGA resin column and washed with 3 mL of 5 M HCl. The column was then dried with air and the [^68Ga]GaCl3 (0.10-0.50 GBq) was eluted with 0.5 mL of water into a vial containing a solution of the unlabeled precursor (25 μg) in 0.7 mL HEPES buffer (2 M, pH 5.3). The reaction mixture was heated in a microwave oven (Danby; DMW7700WDB) for 1 min at power setting 2. The mixture was purified by semi-prep HPLC and quality control was performed via analytical HPLC with the co-injection of the unlabeled standard with a one-twelfth of the radiotracer. Radiochemical yields (decay-corrected) were >50% and radiochemical purities were >95%.
Animal experiments were performed in accordance with guidelines established by the Canadian Council on Animal Care, under a research protocol approved by the Animal Ethics Committee of the University of British Columbia. For all studies, male NOD.Cg-Rag1tm1Momll2rgtm1Wjl/SzJ (NRG) mice were used and cells injected in a 100 μL solution of 1:1 ratio of PBS/Matrigel. For preclinical imaging and biodistribution studies, 5×10^6 cells of Z138, cells were subcutaneously inoculated on the left or right flank and tumors were grown to a size of 200-300 mm^3. […]
Under isoflurane anesthesia (2-2.5% isoflurane in 2 L/min 02), mice were injected intravenously with [^68Ga]Ga-BL34L6 or [^68Ga]Ga-BL34L7. Mice were euthanized by CO2 inhalation after anesthesia with isoflurane. Tissues were harvested, washed in PBS, patted dry, weighed, and then assayed radioactivity on a gamma counter. Counted radioactivities were converted to percentage injected dose per gram of tissue (% ID/g) using a calibration curve.

[1] = Biodistribution: Small Intestine

Row | SMILES | tissue uptake at 1 h (Biodistribution: Adrenals) | tissue uptake at 1 h (Biodistribution: Blood) | tissue uptake at 1 h (Biodistribution: Bone) | tissue uptake at 1 h (Biodistribution: Brain) | tissue uptake at 1 h (Biodistribution: Heart) | tissue uptake at 1 h (Biodistribution: Kidneys) | tissue uptake at 1 h (Biodistribution: Liver) | tissue uptake at 1 h (Biodistribution: Lungs) | tissue uptake at 1 h (Biodistribution: Muscle) | tissue uptake at 1 h (Biodistribution: Pancreas) | tissue uptake at 1 h [1] | tissue uptake at 1 h (Biodistribution: Spleen) | tissue uptake at 1 h (Biodistribution: Stomach) | tissue uptake at 1 h (Biodistribution: Testes) | tissue uptake at 1 h (Biodistribution: Z138 Tumor) | tissue to tissue ratio at 1 h (Ratio Tumor-to-Blood) | tissue to tissue ratio at 1 h (Ratio Tumor-to-Bone) | tissue to tissue ratio at 1 h (Ratio Tumor-to-Kidney) | tissue to tissue ratio at 1 h (Ratio Tumor-to-Muscle) | tissue to tissue ratio at 1 h (Ratio Tumor-to-Pancreas) | also measured
1 | COc1ccc(CCCC(=O)NCCCC[C@H](NC(=O)CN2CCN(CC(=O)O)CCN(CC(=O)O)CCN(CC(=O)O)CC2)C(=O)N[C@@H](CS(=O)(=O)O)C(=O)NCCCC[C@@H]2NC(=O)CC[C@H](C(=O)N[C@@H](CCCCNC(C)C)C(N)=O)NC(=O)[C@@H](C)NC(=O)[C@H](Cc3ccc4ccccc4c3)NC(=O)[C@@H](CCCNC(=N)N)NC(=O)[C@H](CCCCNC(C)C)NC(=O)[C@H](Cc3ccc(O)cc3)NC2=O)cc1 [[68Ga]Ga-BL34L6, metal not drawn] (K([Cya-X7])Y[Lys(iPr)][dR][2Nal][dA][dE][Lys(iPr)]-NH2; lactam N-7) | 0.29 %ID/g | 0.83 %ID/g | 0.14 %ID/g | 0.01 %ID/g | 0.22 %ID/g | 2.07 %ID/g | 1.6 %ID/g | 0.99 %ID/g | 0.12 %ID/g | 0.12 %ID/g | 0.24 %ID/g | 0.45 %ID/g | 0.05 %ID/g | 0.26 %ID/g | 8.92 %ID/g | 11.6 | 66.5 | 4.36 | 84.6 | 75.3 | 
2 | CC(C)NCCCC[C@H](NC(=O)[C@H]1CCC(=O)N[C@@H](CCCCNC(=O)[C@H](CCCCNC(=O)[C@H](CS(=O)(=O)O)NC(=O)CN2CCN(CC(=O)O)CCN(CC(=O)O)CCN(CC(=O)O)CC2)NC(=O)CNC(=O)CCCc2ccc(Cl)cc2)C(=O)N[C@@H](Cc2ccc(O)cc2)C(=O)N[C@@H](CCCCNC(C)C)C(=O)N[C@H](CCCNC(=N)N)C(=O)N[C@@H](Cc2ccc3ccccc3c2)C(=O)N[C@H](C)C(=O)N1)C(N)=O [[68Ga]Ga-BL34T1, metal not drawn] (K(X4)Y[Lys(iPr)][dR][2Nal][dA][dE][Lys(iPr)]-NH2; lactam N-7) | 2.62 %ID/g | 13.3 %ID/g | 1.04 %ID/g | 0.19 %ID/g | 3.11 %ID/g | 5.01 %ID/g | 2.9 %ID/g | 9.23 %ID/g | 0.99 %ID/g | 1.24 %ID/g | 1.31 %ID/g | 2.3 %ID/g | 0.49 %ID/g | 1.95 %ID/g | 12.2 %ID/g | 0.93 | 12.7 | 2.52 | 12.8 | 10.1 | tissue uptake at 3 h (Biodistribution: Adrenals): 1.93 %ID/g; tissue uptake at 3 h (Biodistribution: Blood): 7.55 %ID/g; tissue uptake at 3 h (Biodistribution: Bone): 1.28 %ID/g; tissue uptake at 3 h (Biodistribution: Brain): 0.16 %ID/g; tissue uptake at 3 h (Biodistribution: Heart): 1.91 %ID/g; tissue uptake at 3 h (Biodistribution: Kidneys): 4.15 %ID/g; tissue uptake at 3 h (Biodistribution: Liver): 3.02 %ID/g; tissue uptake at 3 h (Biodistribution: Lungs): 5.9 %ID/g; tissue uptake at 3 h (Biodistribution: Muscle): 0.73 %ID/g; tissue uptake at 3 h (Biodistribution: Pancreas): 0.92 %ID/g; tissue uptake at 3 h [1]: 0.89 %ID/g; tissue uptake at 3 h (Biodistribution: Spleen): 2.08 %ID/g; tissue uptake at 3 h (Biodistribution: Stomach): 0.44 %ID/g; tissue uptake at 3 h (Biodistribution: Testes): 1.71 %ID/g; tissue uptake at 3 h (Biodistribution: Z138 Tumor): 23.7 %ID/g; tissue to tissue ratio at 3 h (Ratio Tumor-to-Blood): 3.17; tissue to tissue ratio at 3 h (Ratio Tumor-to-Bone): 21.9; tissue to tissue ratio at 3 h (Ratio Tumor-to-Kidney): 5.78; tissue to tissue ratio at 3 h (Ratio Tumor-to-Muscle): 32.6; tissue to tissue ratio at 3 h (Ratio Tumor-to-Pancreas): 26
3 | CC(C)NCCCC[C@H](NC(=O)[C@@H]1CCSc2c3cccc([N+](=O)[O-])c3cn2[C@@H](CCCCNC(=O)[C@H](CS(=O)(=O)O)NC(=O)CN2CCN(CC(=O)O)CCN(CC(=O)O)CCN(CC(=O)O)CC2)C(=O)CC(Cc2ccc(O)cc2)C(=O)N[C@@H](CCCCNC(C)C)C(=O)N[C@H](CCCNC(=N)N)C(=O)N[C@@H](Cc2ccc3ccccc3c2)C(=O)N[C@H](C)C(=O)N1)C(N)=O (stereo partly shown) [[^68Ga]Ga-3NOPA-BL34L2, metal not drawn] | 0.7 %ID/g | 0.77 %ID/g | 0.56 %ID/g | 0.03 %ID/g | 0.45 %ID/g | 5.66 %ID/g | 12.5 %ID/g | 4.14 %ID/g | 0.19 %ID/g | 0.21 %ID/g | 0.58 %ID/g | 2.44 %ID/g | 0.12 %ID/g | 0.33 %ID/g | 7.97 %ID/g | 10.4 | 15.5 | 1.41 | 41.8 | 38.1 | 
4 | COc1ccc(CCCC(=O)NCCCC[C@H](NC(=O)[C@H](CS(=O)(=O)O)NC(=O)CN2CCN(CC(=O)O)CCN(CC(=O)O)CCN(CC(=O)O)CC2)C(=O)NCCCC[C@@H]2NC(=O)CC[C@H](C(=O)N[C@@H](CCCCNC(C)C)C(N)=O)NC(=O)[C@@H](C)NC(=O)[C@H](Cc3ccc4ccccc4c3)NC(=O)[C@@H](CCCNC(=N)N)NC(=O)[C@H](CCCCNC(C)C)NC(=O)[C@H](Cc3ccc(O)cc3)NC2=O)cc1 [[^68Ga]Ga-BL34L7, metal not drawn] (K(X6)Y[Lys(iPr)][dR][2Nal][dA][dE][Lys(iPr)]-NH2; lactam N-7) | 0.52 %ID/g | 1.73 %ID/g | 0.4 %ID/g | 0.04 %ID/g | 0.41 %ID/g | 2.45 %ID/g | 1.24 %ID/g | 1.75 %ID/g | 0.14 %ID/g | 0.23 %ID/g | 0.34 %ID/g | 0.59 %ID/g | 0.09 %ID/g | 0.44 %ID/g | 11.1 %ID/g | 6.5 | 37.2 | 4.51 | 87.1 | 9.07 | 
